This is an account of results in patent publication US7018989B2, “Chemical compounds” (University College Cardiff Consultants, LTD, priority 1995, dated 2006).

Where two headings read alike, the source gives them in different places.

As a reminder, the CC50 is the concentration that lowers cell viability or growth by half.

The subject of data set [1] is III-B strain of HIV-1. As to the kind of experiment: microbe, parasite or virus in culture. The class given is cell-based. How it is done:
(§1) C8166 cells. Cells were grown in RPMI 1640 with 10% calf serum. 4×10^4 cells per microtiter plate well were mixed with 5-fold dilutions of compound prior to addition of 10 CCID50 units of III-B strain of HIV-1 and incubated for 5–7 days (Betbeder et al. Antiviral Chem. Chemother. 1, 241–247, 1990). Formation of syncytia was examined from 2 days post-infection. Culture fluid was collected at 5–7 days and gp120 antigen production measured by ELISA (Mahmood and Hay, J. Immunol. Meth., 151, 9–13, 1992). […] Cell viability of infected and uninfected cells were assessed by the MTT-Formazen method (Pauwels et al. J. Virol. Meth. 20, 309–321, 1988).
(§2) Each assay was carried out in duplicate, on at least two separate occasions, and data quoted are the average of each separate assay.

For data set [2], the system named is HIV-1. The data set can be described thus: microbe, parasite or virus in culture. Summed up: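 Cells at 5×10^5 per mL were infected with virus at 100 CCID50 per mL and mixed with test compound dilutions. In CEM cultures, giant cell formation was scored microscopically at day 4; in MT-4 cultures, viable cells were counted by trypan blue staining at day 5.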
Data set [3] relates to HIV-2. As to the kind of experiment: Inhibition of HIV-2 in CEM/TK- cells. In kind it is cell-based. The method in brief:
(§3)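 Trypan blue staining of MT-4 cultures on day 5 gave viable cell numbers; CEM cultures were checked microscopically for giant cells on day 4. Both cell types were infected at 100 CCID50/mL (5×10^5 cells/mL) and incubated with compound dilutions.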

In data set [4] the target is HIV RT (Human immunodeficiency virus type 1 group M subtype B, UniProt P03366). The data set can be described thus: Inhibition of HIV reverse transcriptase. The class given is biochemical. The following applies: Table 4.
Data set [5] deals with C8166 cells. As to the kind of experiment: Toxicity in C8166 cells (MTT-Formazen). The class given is cell-based. The note with it: Table 3. How it is done:
as §1, §2

Data set [6] concerns HIV-1. As to the kind of experiment: Inhibition of HIV-1 in MT4 cells. The class given is cell-based. The following applies: Table 6; mean of two or more repeat experiments; read-out: HIV1 MT4: EC50 for inhibition of HIV-1 in MT4 cells. How it is done:
(§4) Cells were infected with HIV-1 as previously described [Balzarini et al. AIDS (1991), 5, 21–28]. Briefly, 5×10^5 cells per milliliter were infected with HIV-1 or HIV-2 at 100 CCID50 (50% cell culture infective dose) per milliliter of cell suspension. Then 100 μL of the infected cell suspension was transferred to microtiter plate wells and mixed with 100 μL of the appropriate dilutions of the test compounds. After 4 days giant cell formation was recorded microscopically in the HIV-infected cell cultures [CEM], and after 5 days the number of viable cells was determined by trypan blue staining of the HIV-infected cell cultures [MT4].
(§5) The data columns are, in order: • HIV1 MT4: EC50 in μM for inhibition of HIV-1 in MT4 cells. • HIV2 MT4: EC50 in μM for inhibition of HIV-2 in MT4 cells. • CC50 MT4: CC50 in μM for toxicity to MT-4 cells. • HIV1 CEM: EC50 in μM for inhibition of HIV-1 in CEM cells. • HIV2 CEM: EC50 in μM for inhibition of HIV-2 in CEM cells. • HIV2 CEM-TK-: EC50 in μM for inhibition of HIV-2 in CEM/TK^− cells. • CC50 CEM: CC50 in μM for toxicity to CEM cells. • EC50 MSV: EC50 in μM for inhibition of MSV • MCC MSV: Minimum cytotoxic concentration in MSV assay

For data set [7], the system named is HIV-2. The data set can be described thus: Inhibition of HIV-2 in MT4 cells. The class given is cell-based. The note with it: Table 6; mean of two or more repeat experiments; read-out: HIV2 MT4: EC50 for inhibition of HIV-2 in MT4 cells. How it is done:
as §4, §5

In data set [8] the test system is MT-4 cells. The data set can be described thus: Toxicity to MT-4 cells. In kind it is cell-based, human. The following applies: Table 6; mean of two or more repeat experiments; read-out: CC50 MT4: CC50 for toxicity to MT-4 cells. Here is the method:
as §4, §5

Data set [9] concerns HIV-2. The data set can be described thus: Inhibition of HIV-2 in CEM cells (giant cell formation). The class given is cell-based. Summed up: as §3
For data set [10], the system named is CEM cells. As to the kind of experiment: Toxicity to CEM cells. The following applies: Table 6; mean of two or more repeat experiments. The class given is cell-based, human.
For data set [11], the system named is HIV1 d4T-Sensitive. The data set can be described thus: HIV1 in HeLa cells, d4T-sensitive strain. The class given is cell-based, HIV-1. The note with it: Table 4.
Data set [12] has as its system HIV1 d4T-Resistant. As to the kind of experiment: HIV1 in HeLa cells, d4T-resistant strain. The note with it: read-out: EC50 HeLa HIV1 d4T-Resistant. In kind it is cell-based, HIV-1.
Data set [13] is described as follows: Toxicity in C8166 cells (MTT-Formazen). The class given is cell-based. The following applies: human, Table 3. How it is done:
as §1, §2

Data set [14] relates to HIV-1 (GB8 or IIIB strains). As to the kind of experiment: Anti-HIV-1 activity in JM cells. The class given is cell-based. The following applies: Human immunodeficiency virus 1, IIIB; HIV1 in JM; Table 2. How it is done: as §1
JM cells JM cells, which are relatively resistant to the antiviral effects of AZT and a number of its derivatives, were infected with HIV-1 strains and the antiviral and toxic effects of compounds assessed as for C8166 cells. Both GB8 or IIIB strains of HIV1 were used, with no delectable differences in the end-points noted.
as §2

In data set [15] the test system is Moloney Sarcoma Virus [MSV]. The data set can be described thus: MSV-induced tumour formation and survival in NMRI mice. The class given is in vivo. The note with it: MSV infected mice; 50 [low] or 200 [high] mg/kg/day i.p. for 4 days. How it is done: Drug doses are 50[low ] or 200 [high] mg/kg/day given i.p. for 4 days starting 1 hour before MSV inoculation.
In Vivo Testing Inhibitory Effects of Test Compounds on the Initiation of MSV-Induced Tumour Formation in NRMI Mice and on the Survival of MSV Innoculated NMRI Mice.
Mice infected with Moloney Sarcoma Virus [MSV] were treated daily with either placebo, or d4T [at one of two doses] or with compound 324 at one of the same [equi-molar] doses.
Two- to three-day old NMRI mice (weighing—2 gram) were innoculated subcutaneously (s.c.) in the left hind leg with 50 μl MSV (100 foci forming units, as measured by in vitro determination of the virus-induced transformation of murine C3H embryo fibroblast cells). At 4 to 5 days post-infection, tumours develop and rapidly increase in volume upon further aging of the mice. Within 10 to 12 days post-infection, mice (then weighing—5 to 6 gram) die from the viral infection. Drug treatment started 1 hour prior to infection of the virus, and further compound administration was given daily i.p. for an additional 3 days. The mean day of tumour initiation (±standard deviation) and the mean day of survival of the mice (±standard deviation) was calculated and statistical significance of the average delay of tumour formation and the mean day of survival in the treated groups versus the untreated (control) group was assessed by two-tailed student's t-test.

Setting [16] is: Human immunodeficiency virus 1, C8166, Table 4, read-out: EC50 8166 HIV1.
[17] abbreviates: Human immunodeficiency virus 1, CCRF-CEM, read-out: EC50 CEM HIV1.
The mark [18] stands for this setting: HIV1 in C8166 cells, Table 3, read-out: Activity EC50.
The mark [19] stands for this setting: Table 4, read-out: EC50 8166 HIV1.
[20] abbreviates: read-out: EC50 CEM HIV1, Table 4.
The mark [21] stands for this setting: read-out: HIV1 CEM: EC50 for inhibition of HIV-1 in CEM cells, Table 6, mean of two or more repeat experiments.
[22] abbreviates: Table 6, mean of two or more repeat experiments, read-out: HIV2 CEM: EC50 for inhibition of HIV-2 in CEM cells.
[23] abbreviates: Table 4, read-out: EC50 CEM TK− HIV2.
Where [24] appears, read: Table 6, mean of two or more repeat experiments, read-out: HIV2 CEM-TK-: EC50 for inhibition of HIV-2 in CEM/TK^− cells.
Setting [25] is: Human immunodeficiency virus 2, CEM-TK(-), read-out: EC50 CEM TK^−.
Where [26] appears, read: Human immunodeficiency virus 1, HeLa.

Consider `Cc1cn([C@H]2C[C@H](N=[N+]=[N-])[C@@H](CO)O2)c(=O)[nH]c1=O` [AZT, 3′-azido-3′-deoxythymidine, reference compound], for which the EC50 was 0.008 µM in data set [1] (setting [16]); 0.003 µM in data set [2] (setting [17]); > 100 µM in data set [3] (Human immunodeficiency virus 2, CEM-TK(-), Table 4, read-out: EC50 CEM TK− HIV2). Further, in data set [4], the “EC50 HIV RT” value is “Inactive”.

As for `COC(=O)C(C)NP(=O)(OCC1C=CC(n2cc(C)c(=O)[nH]c2=O)O1)Oc1cccc(C(F)(F)F)c1` (stereo not drawn) [Compound 526, 2′,3′-dideoxy-2′,3′-didehydrothymidine 5′-(m-trifluromethylphenylmethoxyalaninyl) phosphoramidate], the “Selectivity CC50/EC50 × 10^3” value in data set [1] is 250 × 10^3. The EC50 in data set [1] (setting [18]) is 0.0008 µM; in data set [1] (setting [19]), 0.0008 µM; in data set [6] it was 0.05 µM; in [7], 0.11 µM; in data set [2] (setting [20]) it was 0.08 µM; in data set [2] (setting [21]), 0.15 µM. The EC50 came to 0.15 µM in data set [9] (setting [22]); 0.06 µM in [3] (setting [23]); 0.12 µM in data set [3] (setting [24]); 0.04 µM in [11]; 0.05 µM in [12] (Table 4). The CC50 in data set [5] is 200 µM; in [8], 10 µM; in [10], 30 µM.

Turning to `COC(=O)C(C)NP(=O)(OC[C@@H]1C=C[C@H](n2cc(C)c(=O)[nH]c2=O)O1)Oc1cc(Cl)cc(Cl)c1` (stereo partly drawn) [Compound 546, 2′,3′-dideoxy-2′,3′-didehydrothymidine 5′-(3,5-dichlorophenylmethoxyalaninyl) phosphoramidate], in data set [1], the “Selectivity CC50/EC50 × 10^3” value is listed as 100 × 10^3. For the same compound, the EC50 is 0.001 µM in data set [1] (setting [18]); 0.001 µM in [1] (setting [19]); 0.037 µM in [6]; 0.12 µM in data set [7]; 0.06 µM in data set [2] (setting [20]); 0.12 µM in [2] (setting [21]). The EC50 in data set [9] (setting [22]) turned out to be 0.15 µM; in [3] (setting [23]), 0.06 µM; in [3] (setting [24]), 0.12 µM; in data set [11] it was 0.03 µM; in [12] (Table 4) it was 0.04 µM. The CC50 in [5] was 100 µM; in data set [8], 10.5 µM; in data set [10] it was 26.9 µM.

Regarding `Cc1cn(C2C=CC(COP(=O)(NC(Cc3ccccc3)C(=O)OCc3ccccc3)Oc3ccccc3)O2)c(=O)[nH]c1=O` (stereo not drawn) [Compound 866, 2′,3′-dideoxy-2′,3′-didehydrothymidine-5′-(phenyl N-methoxyglycinyl) phosphoramidate], in data set [1], the “Selectivity CC50/EC50 × 10^3” value was >1.25 × 10^3. The EC50 in [1] (setting [18]) was 0.8 µM; in data set [6], 1.3 µM; in data set [7] it was 6.7 µM; in data set [2] (setting [21]), 6 µM; in data set [9] (setting [22]), 6 µM; in data set [3] (setting [24]), 7 µM. In addition, the CC50 was > 1000 µM in data set [5], ≥ 250 µM in data set [8] and ≥ 250 µM in [10].

In the case of `COC(=O)C(CCSC)NP(=O)(OCC1C=CC(n2cc(C)c(=O)[nH]c2=O)O1)Oc1ccccc1` (stereo not drawn) [Compound 867, 2′,3′-dideoxy-2′,3′-didehydrothymidine-5′-(phenyl N-methoxymethioninyl) phosphoramidate], the “Selectivity CC50/EC50 × 10^3” value in data set [1] is recorded as >62.5 × 10^3. For the same compound, the EC50 in data set [1] (setting [18]) was 0.0016 µM; in data set [6], 0.2 µM; in data set [7] it was 0.4 µM; in data set [2] (setting [21]), 0.6 µM; in [9] (setting [22]), 0.8 µM; in [3] (setting [24]), 0.34 µM. The CC50 is > 1000 µM in data set [5], 22 µM in data set [8] and ≥ 250 µM in data set [10].

On to `Cc1cn([C@H]2C=C[C@@H](CO)O2)c(=O)[nH]c1=O` [d4T, 2′,3′-dideoxy-2′,3′-didehydrothymidine, reference compound], for which, in data set [1], the “Selectivity CC50/EC50 × 10^3” value is reported as 0.6 × 10^3. Also, the EC50 in data set [1] (setting [16]) was 0.08 µM; in data set [1] (Human immunodeficiency virus 1, HIV1 in C8166, Table 2, read-out: EC50 C8166), 0.08 µM; in data set [1] (Human immunodeficiency virus 1, HIV1 in C8166 cells, Table 3, read-out: Activity EC50), 0.08 µM; in [14], 0.8 µM; in data set [2] (setting [17]) it was 0.5 µM; in [9] (setting [25]) it was 1.2 µM. The EC50 in data set [3] (setting [25]) was > 100 µM; in data set [3] (Human immunodeficiency virus 2, CEM-TK(-), read-out: EC50 CEM TK− HIV2), > 100 µM; in data set [11] (setting [26]) it was 0.86 µM; in data set [12] (setting [26]), 3.38 µM. The same compound yielded a CC50 in data set [13] of 50 µM. Besides, the “EC50 HIV RT” value in [4] is on record as “Inactive”. For the same compound, in data set [15], the delay in death result is listed as “failed to give any detectable delay”. Further, the “delay in tumour appearance” value in [15] is “failed to give any detectable delay”.
